From PMC12057341, “In vitro pharmacokinetic/pharmacodynamic modeling of the effect of mucin on polymyxin B activity against Acinetobacter baumannii” (Antimicrobial Agents and Chemotherapy, 2025)
Where a SMILES comes first, the peptide text is derived from it. Bridges are numbered along the chain shown (N, C = ends). [ ]: non-standard residue; d: D form. The star is where a group is joined. X1 = CC[C@H](C)CCCCC(=O)*; Dab = NCC[C@H](N)C(=O)O

What was measured:
[1] = tested on: mucin from the porcine stomach; experiment: PMB binding to mucin by ultracentrifugation in CAMHB with 1% mucin; assay type: in vitro ADME; parameters: Unbound conc.: unit not given here
Protocol: Mucin from the porcine stomach was obtained from Sigma-Aldrich (Merck KGaA, Saint-Quentin Fallavier, France) and solubilized in NaCl 0.9% to obtain a solution at 20% (pH adjusted to 7). The solution was autoclaved at 110°C for 15 minutes.
PMB solutions at concentrations ranging from 0.5 to 10,000 mg/L in CAMHB with 1% mucin were incubated for 1 h at 35°C, then ultracentrifuged at ~290 000 g for 5 h at room temperature (Beckman Optima LE-80K, rotor: Beckman Coulter 70.1 Ti), according to a method previously described ([35]). Unbound PMB concentrations in the supernates were determined by LC-MS/MS (method adapted from a previous publication ([36]) and detailed in Supplemental material) and used to determine the unbound fraction (fu) of PMB. Potential PMB sedimentation ([37]) during experimentation was determined from PMB solutions prepared in mucin-free CAMHB and subjected to the same ultracentrifugation conditions as previously described, and then used to correct for unbound PMB concentrations.
The same procedure was performed with a nonautoclaved mucin solution. Experiments were done in triplicate.
The relationship between fu and PMB total concentrations was modeled according to a sigmoidal Emax function (equation 1):
(1) fu=E0+ Imax × C^ε/IC50ε+ C^ε,
where E0 represents the minimum fu, Imax the maximum increase in fu, IC50 (mg/L) corresponds to PMB total concentration needed to reach 50% of Imax, C (mg/L) to the PMB total concentration, and ε to the Hill coefficient.
Parameter estimation was performed using nonlinear regression with iteratively reweighted least squares (R, version 4.1.3 – Package: robustbase, version 0.99–0). Two sets of parameters were estimated, one for the data generated with autoclaved mucin, another for the data generated without autoclave. The two sets of parameters were compared using ANOVA testing.

[2] = assumed for TK modeling, as previously shown; cited from earlier work
Description: Bacterial counts obtained from TK experiments without mucin were first modeled using NONMEM 7.4 (ICON plc, Dublin, Ireland) with the Laplacian algorithm and the M3 method for handling observations below the limit of quantification ([39]). PMB was assumed to be stable over the course of the experiment as previously shown ([40]). A previously described model with hetero-resistance ([41]), that is, two bacterial subpopulations, one susceptible to PMB (S) and one resistant (R), was used to describe the time course of bacterial counts for the two A. baumannii strains (Fig. 1). Different functions w ...

[3] = equation 1 fit, all data pooled, value (variance) in Table 1, CAMHB + 1% mucin, ultracentrifugation, LC-MS/MS, triplicate
[4] = equation 1 fit, autoclaved mucin data
[5] = equation 1 fit, non-autoclaved mucin data
[6] = simulated with equation 1, autoclaved mucin parameters, total conc. 0.5, CAMHB + 1% mucin
[7] = simulated with equation 1, autoclaved mucin parameters, total conc. 1, CAMHB + 1% mucin
[8] = simulated with equation 1, autoclaved mucin parameters, total conc. 2, CAMHB + 1% mucin
[9] = simulated with equation 1, autoclaved mucin parameters, total conc. 4, CAMHB + 1% mucin
[10] = simulated with equation 1, autoclaved mucin parameters, total conc. 8, CAMHB + 1% mucin
[11] = simulated with equation 1, autoclaved mucin parameters, total conc. 10, CAMHB + 1% mucin
[12] = simulated with equation 1, autoclaved mucin parameters, total conc. 50, CAMHB + 1% mucin
[13] = simulated with equation 1, autoclaved mucin parameters, total conc. 100, CAMHB + 1% mucin
[14] = simulated with equation 1, autoclaved mucin parameters, total conc. 500, CAMHB + 1% mucin
[15] = simulated with equation 1, autoclaved mucin parameters, total conc. 1000, CAMHB + 1% mucin
[16] = simulated with equation 1, autoclaved mucin parameters, total conc. 5000, CAMHB + 1% mucin
[17] = simulated with equation 1, autoclaved mucin parameters, total conc. 10000, CAMHB + 1% mucin
[18] = simulated with equation 1, non-autoclaved mucin parameters, total conc. 0.5, CAMHB + 1% mucin
[19] = simulated with equation 1, non-autoclaved mucin parameters, total conc. 1, CAMHB + 1% mucin
[20] = simulated with equation 1, non-autoclaved mucin parameters, total conc. 2, CAMHB + 1% mucin
[21] = simulated with equation 1, non-autoclaved mucin parameters, total conc. 4, CAMHB + 1% mucin
[22] = simulated with equation 1, non-autoclaved mucin parameters, total conc. 8, CAMHB + 1% mucin
[23] = simulated with equation 1, non-autoclaved mucin parameters, total conc. 10, CAMHB + 1% mucin
[24] = simulated with equation 1, non-autoclaved mucin parameters, total conc. 50, CAMHB + 1% mucin
[25] = simulated with equation 1, non-autoclaved mucin parameters, total conc. 100, CAMHB + 1% mucin
[26] = simulated with equation 1, non-autoclaved mucin parameters, total conc. 500, CAMHB + 1% mucin
[27] = simulated with equation 1, non-autoclaved mucin parameters, total conc. 1000, CAMHB + 1% mucin
[28] = simulated with equation 1, non-autoclaved mucin parameters, total conc. 5000, CAMHB + 1% mucin
[29] = simulated with equation 1, non-autoclaved mucin parameters, total conc. 10000, CAMHB + 1% mucin
[30] = simulated with equation 1, pooled data parameters, total conc. 0.5, CAMHB + 1% mucin
[31] = simulated with equation 1, pooled data parameters, total conc. 1, CAMHB + 1% mucin
[32] = simulated with equation 1, pooled data parameters, total conc. 2, CAMHB + 1% mucin
[33] = simulated with equation 1, pooled data parameters, total conc. 4, CAMHB + 1% mucin
[34] = simulated with equation 1, pooled data parameters, total conc. 8, CAMHB + 1% mucin
[35] = simulated with equation 1, pooled data parameters, total conc. 10, CAMHB + 1% mucin
[36] = simulated with equation 1, pooled data parameters, total conc. 50, CAMHB + 1% mucin
[37] = simulated with equation 1, pooled data parameters, total conc. 100, CAMHB + 1% mucin
[38] = simulated with equation 1, pooled data parameters, total conc. 500, CAMHB + 1% mucin
[39] = simulated with equation 1, pooled data parameters, total conc. 1000, CAMHB + 1% mucin
[40] = simulated with equation 1, pooled data parameters, total conc. 5000, CAMHB + 1% mucin
[41] = simulated with equation 1, pooled data parameters, total conc. 10000, CAMHB + 1% mucin

With `CC[C@H](C)CCCCC(=O)N[C@@H](CCN)C(=O)N[C@H](C(=O)N[C@@H](CCN)C(=O)N[C@H]1CCNC(=O)[C@H]([C@@H](C)O)NC(=O)[C@H](CCN)NC(=O)[C@H](CCN)NC(=O)[C@H](CC(C)C)NC(=O)[C@@H](Cc2ccccc2)NC(=O)[C@H](CCN)NC1=O)[C@@H](C)O` [PMB, polymyxin B] (X1-[Dab]T[Dab][Dab][Dab][dF]L[Dab][Dab]T; lactam 4-C) the “PMB bound to mucin” value ([1]; PMB concentrations encountered in clinical practice, up to 10 mg/L, 1% mucin) was “approximately 95%”, the “PMB unbound fraction (fu), maximum” value ([1]; PMB total concentration of 200 mg/L (b7) or higher than 200 mg/L, CAMHB + 1% mucin, ultracentrifugation, LC-MS/MS) was 60% and the “PMB unbound fraction (fu)” value ([1]; PMB total concentrations up to 20 mg/L, CAMHB + 1% mucin, 1 h 35°C, ultracentrifugation ~290 000 g 5 h, LC-MS/MS, triplicate) was 6%. For the same compound, the “IC50, PMB total concentration needed to reach 50% of the maximum fu” value [1, 3] was 114.37 (196) mg/L, the “Imax, maximum PMB fu increase” value [1, 3] was 0.56 (0.0009) and the “ε, Hill coefficient of fu vs total concentration” value [1, 3] was 1.97 (0.252). For the same compound, the “IC50 of fu model” value [1, 4] was 104.01 µg/mL, the “Imax, maximum fu increase” value [1, 4] was 0.56 and the “E0, minimum fu” value ([1]; equation 1 fit, autoclaved mucin data, CAMHB + 1% mucin, ultracentrifugation) was 0.067. For the same compound, the “IC50 of fu model” value [1, 5] was 126.95 µg/mL, the “Imax, maximum fu increase” value [1, 5] was 0.57 and the “E0, minimum fu” value ([1]; equation 1 fit, non-autoclaved mucin data, CAMHB + 1% mucin, ultracentrifugation) was 0.056. For the same compound, the “E0, minimum PMB fu value” ([1]; sigmoidal Emax fit of fu vs PMB total concentration (equation 1), all data pooled, value (variance) in Table 1, CAMHB + 1% mucin, 1 h 35°C, ultracentrifugation ~290 000 g 5 h room temperature, LC-MS/MS, triplicate) was 0.061 (0.0004), the Unbound conc. [1, 6] was 0.03 and the “fu (95% CI)” value [1, 6] was 6.7 (0.1 - 13.2) %. For the same compound, the Unbound conc. [1, 7] was 0.07, the “fu (95% CI)” value [1, 7] was 6.7 (0.1 - 13.2) % and the Unbound conc. [1, 8] was 0.13. For the same compound, the “fu (95% CI)” value [1, 8] was 6.7 (0.1 - 13.2) %, the Unbound conc. [1, 9] was 0.27 and the “fu (95% CI)” value [1, 9] was 6.7 (0.3 - 13.2) %. The Unbound conc. [1, 10] was 0.55, the “fu (95% CI)” value [1, 10] was 6.9 (0.7 - 13.0) % and the Unbound conc. [1, 11] was 0.70. For the same compound, the “fu (95% CI)” value [1, 11] was 7.0 (1.0 - 13.0) %, the Unbound conc. [1, 12] was 7.96 and the “fu (95% CI)” value [1, 12] was 15.9 (7.7 – 24.2) %. The Unbound conc. [1, 13] was 33.4, the “fu (95% CI)” value [1, 13] was 33.4 (24.9 – 41.9) % and the Unbound conc. [1, 14] was 304. The “fu (95% CI)” value [1, 14] was 60.8 (55.0 - 66.6) %, the Unbound conc. [1, 15] was 621 and the “fu (95% CI)” value [1, 15] was 62.1 (57.2 – 67.1) %. For the same compound, the Unbound conc. [1, 16] was 3120, the “fu (95% CI)” value [1, 16] was 62.5 (57.1 – 67.9) % and the Unbound conc. [1, 17] was 6250. The “fu (95% CI)” value [1, 17] was 62.5 (57.1 – 68.0) %, the Unbound conc. [1, 18] was 0.03 and the “fu (95% CI)” value [1, 18] was 5.6 (2.1 - 9.1) %. For the same compound, the Unbound conc. [1, 19] was 0.06, the “fu (95% CI)” value [1, 19] was 5.6 (2.1 - 9.1) % and the Unbound conc. [1, 20] was 0.11. The “fu (95% CI)” value [1, 20] was 5.6 (2.2 - 9.1) %, the Unbound conc. [1, 21] was 0.23 and the “fu (95% CI)” value [1, 21] was 5.7 (2.3 - 9.1) %. The Unbound conc. [1, 22] was 0.48, the “fu (95% CI)” value [1, 22] was 5.9 (2.7 - 9.1) % and the Unbound conc. [1, 23] was 0.61. For the same compound, the “fu (95% CI)” value [1, 23] was 6.1 (3.0 - 9.2) %, the Unbound conc. [1, 24] was 7.08 and the “fu (95% CI)” value [1, 24] was 14.2 (10.5 – 17.8) %. The Unbound conc. [1, 25] was 27.9, the “fu (95% CI)” value [1, 25] was 27.9 (23.8 – 32.1) % and the Unbound conc. [1, 26] was 293. The “fu (95% CI)” value [1, 26] was 58.6 (54.6 - 62.6) %, the Unbound conc. [1, 27] was 615 and the “fu (95% CI)” value [1, 27] was 61.5 (58.4 – 64.7) %. The Unbound conc. [1, 28] was 3130, the “fu (95% CI)” value [1, 28] was 62.7 (58.6 – 66.7) % and the Unbound conc. [1, 29] was 6270. For the same compound, the “fu (95% CI)” value [1, 29] was 62.7 (58.6 - 66.9) %, the Unbound conc. [1, 30] was 0.03 and the “fu (95% CI)” value [1, 30] was 6.1 (2.1 - 10.0) %. For the same compound, the Unbound conc. [1, 31] was 0.06, the “fu (95% CI)” value [1, 31] was 6.1 (2.1 - 10.0) % and the Unbound conc. [1, 32] was 0.12. For the same compound, the “fu (95% CI)” value [1, 32] was 6.1 (2.2 - 10.0) %, the Unbound conc. [1, 33] was 0.25 and the “fu (95% CI)” value [1, 33] was 6.1 (2.3 - 10.0) %. For the same compound, the Unbound conc. [1, 34] was 0.51, the “fu (95% CI)” value [1, 34] was 6.4 (2.7 - 10.0) % and the Unbound conc. [1, 35] was 0.65. For the same compound, the “fu (95% CI)” value [1, 35] was 6.5 (3.0 - 10.1) %, the Unbound conc. [1, 36] was 7.62 and the “fu (95% CI)” value [1, 36] was 15.2 (10.7 - 19.7) %. The Unbound conc. [1, 37] was 30.4, the “fu (95% CI)” value [1, 37] was 30.4 (25.6 - 35.2) % and the Unbound conc. [1, 38] was 296. For the same compound, the “fu (95% CI)” value [1, 38] was 59.2 (55.1 - 63.2) %, the Unbound conc. [1, 39] was 613 and the “fu (95% CI)” value [1, 39] was 61.3 (58.2 - 64.4) %. For the same compound, the Unbound conc. [1, 40] was 3100, the “fu (95% CI)” value [1, 40] was 62.1 (58.4 - 65.8) % and the Unbound conc. [1, 41] was 6210. For the same compound, the “fu (95% CI)” value [1, 41] was 62.1 (58.3 - 65.8) % and the “Stability over the course of the experiment” value [2] was “stable”.
